# Key:
# [1] = system: A. baumannii KW1 strains with β-lactamase plasmids; test: Etest MIC of β-lactams, extended-spectrum β-lactamase, AmpC β-lactamase or carbapenemase (Table 18); format: cell-based, Acinetobacter baumannii; settings: production of OXA-type carbapenemases
# In short: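 A. baumannii KW1 transformed by electroporation with pYMAb5 or pYMAb5Tc carrying PCR-cloned resistance genes plus flanking regions from clinical plasmids. MICs by Etest; values between two-fold dilutions rounded up to the next two-fold value.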
# [2] = system: clinical K. pneumoniae isolate producing the carbapenemase OXA-48; settings: previous study; cited from earlier work
# [3] = system: K. pneumoniae NVT1001 harbouring the pACYC177 plasmid with blaOXA-48; test: Mouse peritonitis-sepsis infection model; format: in vivo, Klebsiella pneumoniae
# Description: Pathogen-free 6- to 8-week-old male BALB/c mice were obtained from the National Laboratory Animal Center (Taiwan) and maintained in the pathogen-free vivarium of the Laboratory Animal Center of National Defense Medical Center (Taiwan). K. pneumoniae NVT1001 harbouring the pACYC177 plasmid with blaOXA-48 was cultured overnight at 37° C. in BHI broth and then diluted (1:100) in fresh BHI broth. The culture was incubated until the mid-exponential growth phase, and the cells were then washed once, resuspended in 0.85% sterile saline, and adjusted to the desired concentrations according to the OD600 value. The concentrations were verified by plating the cells to determine viable counts. […] Meanwhile, antibiotic doses were prepared in 0.85% sterile saline. At 1 hour post-inoculation, antibiotic or 0.85% sterile saline alone was administered as a single subcutaneous injection with a volume of 0.3 mL per dose. The mice were then monitored daily for 7 days to measure survival.
# [4] = system: K. pneumoniae NVT1001 harbouring the pACYC177 plasmid with blaOXA-48; test: Broth microdilution MIC (CLSI); format: cell-based; settings: Klebsiella pneumoniae; broth microdilution test; NVT1001 with pACYC177 blaOXA-48
# Description: The MICs of antibiotics were determined using the Etest (Biodisk AB, Sweden) according to the manufacturer's instructions. The MICs from the Etest, which fall between standard two-fold dilutions, were rounded up to the next highest two-fold value. The MICs of ceftazidime and cefotaxime against K. pneumoniae NVT1001 harbouring the pACYC177 plasmid with blaOXA-48 were further determined using a broth microdilution test according to the recommendations of the CLSI,^25 and the results were interpreted according to the breakpoints established by the CLSI in 2017.^25 Meanwhile, due to the lack of CLSI breakpoints in 2016 and 2017, the results for cephalothin were interpreted according to the breakpoints established by the CLSI in 2015,^26 and the results for moxifloxacin were interpreted according to the breakpoints established by the EUCAST in 2017.^27
# [5] = system: clinical K. pneumoniae isolate producing the carbapenemase OXA-48; settings: previous study; cited from earlier work; remark: listed apart in the source
smiles,measurement,setting,value
CC(C)(O/N=C(\C(=O)N[C@@H]1C(=O)N2C(C(=O)[O-])=C(C[n+]3ccccc3)CS[C@H]12)c1csc(N)n1)C(=O)O [Ceftazidime],effects on the MIC,[1],no increase effects
same,MIC relative to that of cefotaxime,[2],4 fold lower
same,in vivo efficacy (comparison),[3]; BALB/c mice,higher than that of cefotaxime
same,ED50,"[3]; Klebsiella pneumoniae, sc, read-out: estimated ED50",30 mg/kg
same,MIC,[4],0.5 µg/mL
same,ED50 (comparison),[5],lower than that of cefotaxime

# From patent US10760110B2, “Antibiotic testing and screening system” (priority 2017, dated 2020)
